How the values were obtained:
Vero cells = assay type: cell-based; settings: CPA at concentrations up to 200 uM
human U87 tumors = test: Subcutaneous human U87 glioma tumors in athymic mice, intratumoral injection; assay type: in vivo; settings: rRp450 2.5×10^8 pfus plus vehicle, or 1 mg CPA alone
Excerpt: FIG. 6B is a graph depicting the in vivo augmentation of rRp450's oncolytic effect by CPA on U87 tumors. Human U87 tumors were inoculated with CPA (closed circles), rRp450 plus vehicle (open circles), or rRp450 plus CPA (dark squares). The black vertical arrows indicate the times of injection (days 1, 2, 4, and 6). Values represent the average tumor volume from 5 mice per group. Error bars represent the standard error of the mean. For this experiment, differences were statistically significant at the 22, 26 and 29 day time point (P<0.05, one way analysis of variance).
In a similar experiment, visible subcutaneous nodules (the range of volumes was 10-135 mm^3 and the average volume was 74 mm^3) were established by the injection of 10^6 human U87 glioma cells into the subcutaneous flank of athymic mice (NCY/sed, nu/nu; MGH breeding colony). Thirty days later the tumors were treated with intratumoral injections, using a Hamilton syringe, of 1 mg CPA in 125 ul of medium, rRp450 (2.5×10^8 pfus) plus vehicle in 125 ul of medium, or rRp450 (2.5×10^8 pfus) plus 1 mg CPA in 125 ul of medium. Tumor inoculations were repeated on day 2, day 4 and day 6. Five mice were used per treatment group. […]

9L cells = test: Viral yields from infected 9L cells treated with cyclophosphamide, plaque assay on Vero cells; assay type: cell-based, rat; settings: 9L cells infected with rRp450 in presence or absence of cyclophosphamide, three days
Procedure: Three day later, cells and supernatants were harvested and virus was harvested by freeze-thawing three times. Plaque-assays on Vero cells were performed to measure viral yields. Assay was performed in triplicate plates.
Cell culture studies: Cells were usually plated the day before viral infection. The following day, 3 random dishes were trypsinized and cell numbers were enumerated using a Coulter counter. Based on the mean cell number, the viral mutant was added to achieve the desired multiplicity of infection (MOI). Experiments were performed in triplicate dishes.
CPA: CPA was added at the start of the incubation period at a concentration of 250 Um.

[1] = test system: rRp450- and hrR3-infected 9L cells; test: Viral protein synthesis (35S-methionine pulse, autoradiography) in infected 9L cells; assay type: cell-based, rat; settings: 9L cells grown with 250 uM CPA or 100 ng/ml ganciclovir for 30 hours, then infected with rRp450 or hrR3 at MOI=3
Procedure: FIG. 4 is an autoradiograph depicting the effect of CPA on rRp450 protein synthesis in infected 9L tumor cells. 9L tumor cells were grown in the presence of CPA (lanes 3 and 6), 100 ng/ml ganciclovir (lanes 2 and 5), or vehicle (lanes 1 and 4). Cells from each group were then infected with rRp450 (lanes 4-6) or hrR3 (lanes 1-3). After pulsing with ^35S-methionine, cell lysates were separated by electrophoresis. The designations, 6,5,8, gB, and pgB indicate the viral ICP6-lacZ fusion, ICP5, ICP8, and glycoprotein B, respectively. The size of molecular weight markers is indicated on the left side of the blot.
Measurement of Viral Protein Synthesis: 9L tumor cells were grown in the presence of 250 uM CPA, 100 ng/ml ganciclovir, or vehicle for 30 hours. Cells from each group were then infected with rRp450 or hrR3 at an MOI=3. Control plates were infected with a mock viral preparation. Eighteen hours later, medium was removed and fresh medium containing 20 uCi of ^35S-methionine was added. Cells were then scraped and harvested two hours later. Cell pellets were resuspended in sodium phosphate, pH=7.3. in 0.9% sodium chloride in the presence of protease inhibitors and then sheared by passage through a 28 and a ½ gauge needle. Protein concentrations were calculated by using a commercially available kit (BioRad). […]

For O=P1(N(CCCl)CCCl)NCCCO1 (stereo not drawn) [CPA, cyclophosphamide], the “Inhibition of plaque production” value (Vero cells) was “did not inhibit plaque production”, the “Growth of U87 tumors, agent alone” value (human U87 tumors) was “relatively rapid” and the “Effect of CPA on replication of rRp450” value (9L cells) was “did not significantly inhibit replication of rRp450”. The “Effect of drug on viral protein synthesis” value [1] was “did not appear to significantly inhibit viral protein synthesis”.
In the case of Nc1nc(O)c2ncn(COC(CO)CO)c2n1 [ganciclovir], the “Inhibition of plaque production” value (Vero cells) is reported as “did” and the “Effect of drug on viral protein synthesis” value [1] is reported as “inhibited the synthesis of viral proteins”.
